The test system of one data set is HEK293. Kind of data set: Cytotoxicity against HEK293 cells assessed as reduction in cell viability by MTT assay. The format is cell-based. Particulars: Homo sapiens; call rule not given here. In general terms: Tetrazolium dyes change colour on reduction, which living cells bring about.
The test system of a further data set is HepG2. Description: Cytotoxicity against human HepG2 cells assessed as reduction in cell viability by MTT assay. The format is cell-based.
In data set [1] the target is Glutamate NMDA receptor. Kind of data set: Antagonist activity at NMDAR in embryonic cultures of rat cortical neuron assessed as inhibition of NMDA-induced calcium influx at 30 uM preincubated for 10 mins followed by NMDA addition by Fluo-4/AM dye based fluorescence assay relative to control. The format is tissue-based.
Data set [2] concerns the target Glutamate NMDA receptor. Kind of data set: Antagonist activity at NMDAR in embryonic cultures of rat cortical neuron assessed as inhibition of NMDA-induced calcium influx preincubated for 10 mins followed by NMDA addition by Fluo-4/AM dye based fluorescence assay. The class given is tissue-based.
Data set [3] has as its target Glutamate [NMDA] receptor. Kind of data set: Binding affinity to NMDAR (unknown origin). The class given is protein-complex assay, Homo sapiens.
The nature of data set [4]: Permeability of compound in PBS at pH 7.4 incubated for 120 mins by UV spectroscopy assay based PAMPA-BBB assay. The class given is ADME. Particulars: read-out: permeability. Background: PAMPA measures passive passage across an artificial lipid membrane.

The source of these data is ChEMBL document CHEMBL4680250, “Identification of tetracyclic lactams as NMDA receptor antagonists with potential application in neurological disorders” (Eur J Med Chem, 2020).

Broadly, the IC50 is the concentration at which inhibition is half-maximal. A word on the Ki: it is the dissociation constant of the complex between target and ligand, obtained from inhibition or displacement. A lower Ki goes with a stronger hold on the target.

In the case of `O=C1CC[C@]2(c3ccc(F)cc3)O[C@H]3Cc4ccccc4[C@@H]3N12`, the IC50 with HEK293 is > 100 µM; in the data set with HepG2 it was > 100 µM; on Glutamate NMDA receptor [1] (read-out: IC50), 61 µM; on Glutamate NMDA receptor [2], 15 µM.
Consider `Cc1ccc([C@@]23CCC(=O)N2[C@H]2c4ccccc4C[C@H]2O3)cc1Cl`, for which the IC50 is > 100 µM in the data set with HEK293, > 100 µM in the data set on HepG2, 63 µM at Glutamate NMDA receptor [1] (read-out: IC50) and 12 µM at Glutamate NMDA receptor [2].
Take `COc1ccc([C@@]23CCC(=O)N2[C@H]2c4ccccc4CC2O3)cc1F` (single isomer, unassigned): the IC50 on Glutamate NMDA receptor [1] (read-out: IC50) came to 13 µM.
`CC[C@@]1(c2ccccc2Cl)CCCCC1=O` displayed a Ki in data set [3] of 0.659 µM.
Take `O=C1CC[C@]2(c3ccc(Br)cc3)O[C@H]3Cc4ccccc4[C@@H]3N12`: the IC50 in the data set with HEK293 is > 100 µM; in the data set with HepG2, > 100 µM; at Glutamate NMDA receptor [1] (read-out: IC50) it was 66 µM; at Glutamate NMDA receptor [2], 11 µM. For the same molecule, the Papp at 2 h in data set [4] is 11.2 ×10⁻⁶ cm/s.
Consider `C[C@H]1CC(=O)N2[C@H]3c4ccccc4C[C@H]3O[C@]12c1ccc(Cl)cc1`, for which the IC50 in the data set with HEK293 is > 100 µM; in the data set with HepG2, > 100 µM; on Glutamate NMDA receptor [1] (read-out: IC50), 80 µM; at Glutamate NMDA receptor [2], 17 µM.
For the molecule `c1ccc2c(c1)C[C@H]1N[C@@H]2c2ccccc21`, the Ki in data set [3] is 0.0372 µM.
On the same count and under the same terms, with `N[C@@H](Cc1ccccn1)c1ccccc1` [LANICEMINE] the figure was 0.56 µM.
Take `CS(=O)(=O)c1ccc([C@@]23CCC(=O)N2[C@H]2c4ccccc4C[C@H]2O3)cc1`: the IC50 result in the data set on Glutamate NMDA receptor [1] is “Not Active”.
`Cc1ccc([C@]23CCC(=O)N2C2c4ccccc4C[C@@H]2O3)cc1Cl` (single isomer, unassigned): on Glutamate NMDA receptor [1] (read-out: IC50), the half-maximal inhibitory concentration (IC50) amounted to 49 µM.
`O=C1CC[C@@]2(c3ccc(Br)cc3)O[C@@H]3Cc4ccccc4[C@@H]3N12`: the IC50 in the data set on HEK293 is > 100 µM; in the data set with HepG2, > 100 µM; at Glutamate NMDA receptor [1] (read-out: IC50), 73 µM; at Glutamate NMDA receptor [2], 16 µM. Moreover, the Papp at 2 h in data set [4] turned out to be 12.3 ×10⁻⁶ cm/s.
Take `O=C1CC[C@@]2(c3ccccc3)O[C@H]3Cc4ccccc4[C@@H]3N12`: the IC50 on Glutamate NMDA receptor [1] (read-out: IC50) stood at 29 µM.
Regarding `O=C1CC[C@@]2(c3ccc(F)cc3)O[C@@H]3Cc4ccccc4[C@@H]3N12`, the IC50 in the data set on HEK293 is > 100 µM; in the data set on HepG2, > 100 µM; on Glutamate NMDA receptor [1] (read-out: IC50) it was 56 µM; at Glutamate NMDA receptor [2] it was 17 µM. For the same molecule, the Papp at 2 h in data set [4] was 24.2 ×10⁻⁶ cm/s.
As for `Cc1ccc([C@@]23CCC(=O)N2[C@H]2c4ccccc4C[C@H]2O3)cc1`, the values for the IC50 on Glutamate NMDA receptor [1] (read-out: IC50) and at Glutamate NMDA receptor [2] were 46 µM and 24 µM, respectively.
The corresponding values for `C[C@H]1CC(=O)N2[C@H]3c4ccccc4C[C@@H]3O[C@@]12c1ccc(Cl)cc1` are 62 µM and 23 µM.
As for `O=C1CC[C@]2(c3ccc(Cl)cc3)O[C@H]3Cc4ccccc4[C@@H]3N12`, the IC50 in the data set on HEK293 was > 100 µM; with HepG2, > 100 µM; on Glutamate NMDA receptor [1] (read-out: IC50), 65 µM; on Glutamate NMDA receptor [2] it was 13 µM. Further, in data set [4], the Papp at 2 h is 15.8 ×10⁻⁶ cm/s.
Consider `O=C1CC[C@@]2(c3ccc(Cl)cc3)O[C@@H]3Cc4ccccc4[C@@H]3N12`, for which the IC50 is > 100 µM in the data set on HEK293, > 100 µM in the data set with HepG2, 82 µM at Glutamate NMDA receptor [1] (read-out: IC50) and 17 µM at Glutamate NMDA receptor [2]. The Papp at 2 h in data set [4] came to 19.2 ×10⁻⁶ cm/s.
Consider `C[C@@H]1CC(=O)N2[C@H]3c4ccccc4C[C@@H]3O[C@@]12c1ccc(Cl)cc1`, for which the IC50 at Glutamate NMDA receptor [1] (read-out: IC50) came to 32 µM.
As for `C[C@@H]1CC(=O)N2[C@H]3c4ccccc4C[C@H]3O[C@]12c1ccc(Cl)cc1`, the IC50 in the data set with HEK293 came out at 46 µM; in the data set with HepG2, 34 µM; at Glutamate NMDA receptor [1] (read-out: IC50), 69 µM; at Glutamate NMDA receptor [2], 13 µM.
Consider `c1ccc(C2(N3CCCCC3)CCCCC2)cc1` [PHENCYCLIDINE], for which the Ki in data set [3] is 0.059 µM.
`COc1ccc([C@@]23CCC(=O)N2[C@H]2c4ccccc4C[C@H]2O3)cc1`: the IC50 at Glutamate NMDA receptor [1] (read-out: IC50) was found to be 4 µM.
Still for that read-out and setting: the same measure for `O=C1CCC[C@@]2(c3ccccc3)O[C@@H]3Cc4ccccc4[C@@H]3N12`: 13 µM.
